In one assay the test system is A172 cell line. Briefly: Comet assay (single-cell gel electrophoresis), A172. Type of assay: cell-based, human. On the procedure:
Single-cell gel electrophoresis was performed to assess the potential genotoxic effect on AGS and A172 after incubation with compound 4b at IC50. This method is based on the ability of damaged DNA to migrate out of the cell during electrophoresis. After DNA staining (Hoechst 33342), the characteristic “comet tail” could be observed under the fluorescence microscope. The damages in 100 randomly selected cells were visually classified into five groups according to the length of the “comet tail”. Group 0 consisted of cells without damaged DNA, while group 4 contained cells with maximally long tails. Based on this, a group damage index (DI) was calculated. The genotoxic effect was found in both examined cell lines. In the case of the A172 cell line, the DNA degradation level seemed to be independent of the incubation time with compound 4b (DNA damage index (DDI) between 77 and 85 over three incubation periods), whereas for AGS cells, genotoxicity was induced in a time-dependent manner (DDI 63, 107, and 111 after 24, 48, and 72 h, respectively).
The comet assay was performed according to the method of Singh et al. with slight modifications. Slides sterilized in 70% ethanol microscope were covered with thin layer of 1% normal melting agarose and left to solidify in a low-humidity environment. Cells were plated in 12-well plates at a density of 1 × 10^5 cells/well and incubated for 24 h in a cell incubator. Next, compound 4b was added in concentrations equal to the IC50 values obtained after the neutral red uptake assay. After 24, 48, and 72 h incubation, cells were harvested, centrifuged, and resuspended in PBS. […] A total of 100 randomly selected cells were scored, and captured comets were classified based on the comet’s tail length as follows: class 0 contained comets with no damaged DNA; class 1, those with low damage; class 2, those with medium damage; class 3, those with high damage; and class 4, those with very high damage. The damage index (DI) was calculated as follows: DI=0×n0+1×n1+2×n2+3×n3+4×n4, n0,1,2,3,4 —the amount of comets in each class.

For the next assay, the system named is AGS cell line. In words: Comet assay (single-cell gel electrophoresis), AGS. Type of assay: cell-based, human. On the procedure: Single-cell gel electrophoresis was performed to assess the potential genotoxic effect on AGS and A172 after incubation with compound 4b at IC50. This method is based on the ability of damaged DNA to migrate out of the cell during electrophoresis. After DNA staining (Hoechst 33342), the characteristic “comet tail” could be observed under the fluorescence microscope. The damages in 100 randomly selected cells were visually classified into five groups according to the length of the “comet tail”. Group 0 consisted of cells without damaged DNA, while group 4 contained cells with maximally long tails. Based on this, a group damage index (DI) was calculated. The genotoxic effect was found in both examined cell lines. […]
The comet assay was performed according to the method of Singh et al. with slight modifications. […] A total of 100 randomly selected cells were scored, and captured comets were classified based on the comet’s tail length as follows: class 0 contained comets with no damaged DNA; class 1, those with low damage; class 2, those with medium damage; class 3, those with high damage; and class 4, those with very high damage. The damage index (DI) was calculated as follows: DI=0×n0+1×n1+2×n2+3×n3+4×n4, n0,1,2,3,4 —the amount of comets in each class.

The next assay has as its system S. aureus 43300. Briefly: Antimicrobial activity assay, microdilution. Type of assay: cell-based, Staphylococcus aureus. The conditions noted are these: concentration range from 0.5 µg/mL to 256 µg/mL. On the procedure: (§1) In vitro antimicrobial and antifungal activity was screened using microdilution and modified Richard’s medium. The assay was performed for compounds 4a, 4b, 4c, and 4d with seven reference microbial strains from ATTC (E. coli 25922, S. aureus 43300, K. pneumoniae 700603, A. baumannii 19606, P. aeruginosa 27853, E. faecalis 29212, and C. albicans 10231).
(§2) Seven reference strains from the ATCC collection (Escherichia coli 25922, Staphylococcus aureus 43300, Klebsiella pneumoniae 13883, Acinetobacter baumannii 19606, Pseudomonas aeruginosa 27853, Enterococcus faecalis 29212, and Candida albicans 10231) were used. The assay was performed according to a modified version of Richard et al.’s protocol and ISO standards 20776-1:2019 and 16256:2021 [78, 79]. Microdilution with spectrophotometric measurement was used to calculate MIC50 (minimal inhibitory concentration which decreased the microorganisms’ viability to 50%) values. Briefly, compounds were prepared 100× concentrated in DMSO, and during the whole experiment, they were diluted to 1× with TSB. Serial dilutions of tested compounds were made directly on plates at a concentration range of 0.5 to 256 µg/mL. Microorganisms were incubated for 24 h at 37 °C (bacteria) or 25 °C (yeast) on Petri dishes with TSA. The bacteria/yeast suspensions were prepared at a density 5 × 10^5 CFU/mL (for bacteria) or 0.5–2.5 × 10^5 CFU/mL (for yeast) with TSB. Also, appropriate controls were contained in the experiment: the positive control consisted of a specific strain in TSB, and the negative control was TSB alone. To ensure that used strains were not modified and were still responding to antibacterial/antifungal compounds established by EUCAST, additional tests were conducted with levofloxacin, gentamicin, and amphotericin B. Microplates were incubated on a shaker for 24 h at 37 ± 1 °C or 25 ± 1 °C for the bacteria and yeast strains, respectively. After the incubation, spectrophotometric measurement was performed at 580 nm. MIC50 was calculated by comparing the results obtained for experimental sets with positive controls. Next, 50 µL aliquots of 1% (m/v) TTC solution were added to each well. The plates were incubated on the shaker for 24 h at 37/25 °C. In living microbial cells, colourless TTC is converted into red formazan crystals, which allows for visual observation and MBC/MFC (minimal bactericidal/fungicidal concentration) value assessment.
(In general: In broth dilution the organism is exposed to a series of concentrations in liquid medium.)

In the next assay the test system is K. pneumoniae 700603. In words: Antimicrobial activity assay, microdilution. Type of assay: cell-based, Klebsiella pneumoniae. The conditions noted are these: concentration range from 0.5 µg/mL to 256 µg/mL. On the procedure: as §1, §2
For a further assay, the system named is C. albicans 10231. In words: Antifungal activity assay, microdilution. The assay is classed as cell-based, Candida albicans. The conditions noted are these: concentration range from 0.5 µg/mL to 256 µg/mL. On the procedure:
as §1, §2

Structures are written as SMILES.

For `Cc1nc(-c2ccccc2)nc(Nc2ccc(F)cc2)c1C=Nc1cccc(Cl)c1` [compound 4b, 5-{[(3-chlorophenyl)imino]methyl}-N-(4-fluorophenyl)-6-methyl-2-phenylpyrimidin-4-amine], the DNA damage index in the assay on A172 cell line (A172, at IC50, 24 h) is 77 arbitrary units; in the assay with A172 cell line (A172, at IC50, 48 h), 85 arbitrary units; with A172 cell line (A172, at IC50, 72 h), 78 arbitrary units; in the assay with AGS cell line (at IC50, 24 h), 63 arbitrary units; with AGS cell line (at IC50, 48 h), 107 arbitrary units. Moreover, the “MIC and MBC/MFC activity” value against S. aureus 43300, against K. pneumoniae 700603 and against C. albicans 10231 was “Neither MIC nor MBC/MFC activity was observed” throughout.

For the origin of these results see paper PMC10889512, “Pyrimidine Schiff Bases: Synthesis, Structural Characterization and Recent Studies on Biological Activities” (International Journal of Molecular Sciences, 2024).
